Series [1] concerns tetrabenazine induced sedation. Kind of series: Antitetrabenazine test (prevention of tetrabenazine induced sedation). The series is classed as in vivo. Conditions: Mus musculus; CD1 male mice; compound ip 30 min before tetrabenazine hydrochloride ip; exploratory behavior scored 30 min later; amount required to reverse the tetrabenazine effects in 50 percent of the animals. As for the experimental part: Prevention of tetrabenazine induced sedation was measured using a modification of the method of Vernier, et al., First Hahnemann Symposium on Psychosomatic Medicine, ed. Nodim and Moyer, pub. Lea and Febiger, Philadelphia, 1962.
Mice, three groups of 12 CD1 males each, were injected intraperitoneally (ip) with a solution of compound (IA) or compound (IB) or with a saline solution alone. Thirty minutes later each of the mice was injected (ip, 35 mg/kg) with a solution containing tetrabenazine hydrochloride. Thirty minutes after the injection of tetrabenazine each mouse was examined for its level of exploratory behavior which was scored on a modification of the arbitrary scale defined by Vernier, et. al. The results reported in Table as the ED50 values are the amounts of the test compounds required to reverse the tetrabenazine effects in 50 percent of the animals tested.

The next series in a line: Acute toxicity (LD50). Conditions: in vivo, ip, in the mouse, calculated as the hydrochloride salt.

Structures can show the parent of a compound that is named as a salt.

The term ED50 denotes the dose that gives a 50% effect, or the effect in half of the subjects. Low readings indicate greater potency, high ones weaker potency. As usually defined, the LD50 is the dose expected to kill half of the subjects tested.

On to `C[C@@H]1NC(C)(C)CO[C@@]1(O)c1ccccc1` (relative stereo) [IA, cis-3,5,5-Trimethyl-2-phenyl-2-morpholinol hydrochloride], for which, in series [1], the ED50 was found to be 18 mg/kg. Further, the LD50 in the series “Acute toxicity (LD50)” was about 160 mg/kg.

The compound `C[C@@H]1NC(C)(C)CO[C@@]1(O)c1ccc(F)cc1` (relative stereo) [IB, cis-2-(4-Fluorophenyl)-3,5,5-trimethyl-2-morpholinol hydrochloride] gave an ED50 in series [1] of 14 mg/kg. The LD50 in “Acute toxicity (LD50)” is about 160 mg/kg.

The values above are taken from EP0170430A1, “Heterocyclic pharmaceutical compounds, preparation and use” (THE WELLCOME FOUNDATION LIMITED, priority 1984, dated 1986).
